Data taken from patent US5043154A, “Antibacterial, antiplaque, anticalculus oral composition” (priority 1989, dated 1991).

Legend:
[1] = human clinical tests, reduction of plaque formation; type: in vivo
[2] = test system: four dental plaque organisms; test: MIC test on the four dental plaque organisms, summary in words; type: cell-based; details: without TCHE
Description: (§1) Slurries and solutions described below are prepared to determine effectiveness in terms of minimum inhibitory concentration (MIC) of various antibacterial agents against a variety of oral bacterial organisms implicated in formation of plaque and leading to gingivitis on dental surfaces. Soft plaque contains about 1.7×10^11 organism/gm. (net weight). The antibacterial agents are admixed with anionic materials, particularly anionic surface active agent often commonly employed in oral compositions and polyphosphate anticalculus agent.
(§2) Minimum inhibitory concentration (MIC) of antibacterial agent is used to evaluate the efficacy of the agent in vitro. […] The smaller the MIC value the greater is the efficacy of the antibacterial agent to inhibit the growth of the bacteria. The in vitro MIC data is related to the efficacy of the dentifrice in vivo since retention and release of antibacterial agent into the oral cavity after toothbrushing is in the range of mcg/ml.

Bacteriodes gingivalis [3] = test: Minimum inhibitory concentration (MIC) against Bacteriodes gingivalis, in vitro; type: cell-based
Description: as §1, §2

Bacteriodes intermedius = test: Minimum inhibitory concentration (MIC) against Bacteriodes intermedius, in vitro; type: cell-based
Description: as §1, §2

[4] = test system: Actinobacillus actinomycetemcomitans; test: Minimum inhibitory concentration (MIC) against Actinobacillus actinomycetemcomitans, in vitro; type: cell-based
Description: as §1, §2

Streptococcus mutans = test: Minimum inhibitory concentration (MIC) against Streptococcus mutans, in vitro; type: cell-based
Description: as §1, §2

Bacteriodes gingivalis [5] = test: inhibition of growth of Bacteriodes gingivalis by dentifrice extracts; type: cell-based; details: dentifrice containing anionic surfactant plus pyrophosphate with enzyme inhibitors Gantrez and NaF
Description: The dentifrice described in Example 3A is compared with the same composition except without any TCHE and with added 0.50 parts of water. Aqueous extracts of each dentifrice are prepared as follows: 50 ml of distilled water is added to 1.0 gm of each dentifrice, mixed well for a couple of hours with stirring bar and centrifuged, after which the supernatant is collected as aqueous extract. Antibacterial activity of the dentifrice extracts are evaluated on Bacteriodes gingivalis.

[6] = 0.5% TCHE, 1% SLS, 1% Gantrez, 2% Pyrophosphate and 0.2% NaF in water

CC(C)(C)CC(C)(C)c1ccc(OCCOCC[N+](C)(C)Cc2ccccc2)cc1 [BTC, benzethonium chloride]
reducing plaque formation ([1]; 0.075% BTC and 1% pyrophosphate dissolved in water): is not | reducing plaque formation ([1]; 0.075% BTC dissolved in water): effective in reducing plaque formation

N=C(NCCCCCCNC(=N)NC(=N)Nc1ccc(Cl)cc1)NC(=N)Nc1ccc(Cl)cc1 [CH, chlorhexidine digluconate]
reducing plaque formation ([1]; 0.1% CH and 1% sodium N-lauroyl sarcosinate dissolved in water): is not | reducing plaque formation ([1]; 0.1% CH dissolved in water): effective in reducing plaque formation

CCCCCCCCCCCCOS(=O)(=O)[O-].[Na+] [SLS, sodium lauryl sulfate]
antibacterial effect [2]: ineffective

Oc1cc(Cl)ccc1Oc1ccc(Cl)cc1Cl [TCHE, 2,4,4'-trichloro-2'-hydroxydiphenyl ether]
Minimum Inhibition Concentration (MIC), Bacteriodes gingivalis (Bacteriodes gingivalis [3]; 0.5% TCHE and 1% SLS in water): 2.5 mg/L | Minimum Inhibition Concentration (MIC), Bacteriodes gingivalis (Bacteriodes gingivalis [3]; [6]): 2.5 mg/L | Minimum Inhibition Concentration (MIC), Bacteriodes intermedius (Bacteriodes intermedius; 0.5% TCHE and 1% SLS in water): 2.5 mg/L | Minimum Inhibition Concentration (MIC), Bacteriodes intermedius (Bacteriodes intermedius; [6]): 2.5 mg/L | Minimum Inhibition Concentration (MIC), Actinobacillus actinomycetemcomitans ([4]; 0.5% TCHE and 1% SLS in water): 5.0 mg/L | Minimum Inhibition Concentration (MIC), Actinobacillus actinomycetemcomitans [4, 6]: 5.0 mg/L | Minimum Inhibition Concentration (MIC), Streptococcus mutans (Streptococcus mutans; 0.5% TCHE and 1% SLS in water): 25.0 mg/L | Minimum Inhibition Concentration (MIC), Streptococcus mutans (Streptococcus mutans; [6]): 25.0 mg/L | compatibility in dentifrice composition (Bacteriodes gingivalis [5]): compatible
